Assay results taken from PubChem BioAssay AID248 (DTP/NCI, 2004).
Where “and” joins values, the source holds several entries; their conditions need not be identical. Identical values can stand only once. Inconclusive results and toxic doses are left out. Rule as the data show it: active = T/C of 150% or more; inactive = T/C below 125%.

System: L1210 leukemia ip in BDF1 mice, survival T/C
Assay: NCI In Vivo Anticancer Drug Screen. Data for tumor model L1210 Leukemia (intraperitoneal) in B6D2F1 (BDF1) mice
Conditions: endpoint: mean survival time, higher = longer survival
Method in brief: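 Mice bearing the transplanted tumor received compound or vehicle. Survival of the treated group was divided by that of the vehicle-treated control group to give the ratio.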

[1] = dose: 25.0 mg/kg/injection, schedule: Q04DX003 (ip), vehicle: saline
[2] = dose: 50.0 mg/kg/injection, schedule: Q04DX003 (ip), vehicle: saline
[3] = dose: 100.0 mg/kg/injection, schedule: Q04DX003 (ip), vehicle: saline
[4] = dose: 12.5 mg/kg/injection, schedule: Q04DX002 (ip), vehicle: Klucel (hydroxypropylcellulose) (HPC)
[5] = dose: 25.0 mg/kg/injection, schedule: Q04DX002 (ip), vehicle: Klucel (hydroxypropylcellulose) (HPC)
[6] = dose: 25.0 mg/kg/injection, schedule: Q01DX009 (ip), vehicle: saline
[7] = dose: 50.0 mg/kg/injection, schedule: Q01DX009 (ip), vehicle: saline
[8] = dose: 100.0 mg/kg/injection, schedule: Q01DX009 (ip), vehicle: saline
[9] = dose: 200.0 mg/kg/injection, schedule: Q04DX002 (ip), vehicle: Klucel (hydroxypropylcellulose) (HPC)
[10] = dose: 200.0 mg/kg/injection, schedule: Q01DX001 (ip), vehicle: saline
[11] = dose: 400.0 mg/kg/injection, schedule: Q01DX001 (ip), vehicle: saline
[12] = dose: 200.0 mg/kg/injection, schedule: Q04DX003 (ip), vehicle: saline
[13] = dose: 400.0 mg/kg/injection, schedule: Q04DX003 (ip), vehicle: saline
[14] = dose: 100.0 mg/kg/injection, schedule: Q01DX001 (ip), vehicle: Klucel (hydroxypropylcellulose) (HPC)
[15] = dose: 200.0 mg/kg/injection, schedule: Q01DX001 (ip), vehicle: Klucel (hydroxypropylcellulose) (HPC)
[16] = dose: 400.0 mg/kg/injection, schedule: Q01DX001 (ip), vehicle: Klucel (hydroxypropylcellulose) (HPC)
[17] = dose: 100.0 mg/kg/injection, schedule: Q01DX009 (ip), vehicle: Klucel (hydroxypropylcellulose) (HPC)
[18] = dose: 100.0 mg/kg/injection, schedule: Q04DX003 (ip), vehicle: Klucel (hydroxypropylcellulose) (HPC)

Measured: T/C

COc1cc(OC)c(-c2nc3cc(Cl)ccc3c(=O)o2)cc1OC
inactive: dose: 87.5 mg/kg/injection, schedule: Q01DX009 (ip), vehicle: Klucel (hydroxypropylcellulose) (HPC) 114 % of control | dose: 175.0 mg/kg/injection, schedule: Q01DX009 (ip), vehicle: Klucel (hydroxypropylcellulose) (HPC) 98 % of control | dose: 350.0 mg/kg/injection, schedule: Q01DX009 (ip), vehicle: Klucel (hydroxypropylcellulose) (HPC) 93 % of control

N#CC(Cl)(Cl)CCl
inactive: dose: 12.0 mg/kg/injection, schedule: Q04DX003 (ip), vehicle: saline 105 % of control | [1] 96 % of control | [2] 96 % of control | [3] 103 % of control and 105 % of control

NC(CSS(=O)(=O)O)=NCCc1c[nH]c(=S)[nH]1
inactive: [4] 107 % of control | [5] 91 % of control

O=C(CCN1CCCCC1)c1cc(Cl)ccc1Cl
inactive: dose: 12.5 mg/kg/injection, schedule: Q01DX009 (ip), vehicle: saline 93 % of control | [6] 97 % of control and 98 % of control | dose: 25.0 mg/kg/injection, schedule: Q04DX002 (ip), vehicle: saline 103 % of control | [7] 93 % of control | dose: 50.0 mg/kg/injection, schedule: Q04DX002 (ip), vehicle: saline 98 % of control | [8] 91 % of control | dose: 100.0 mg/kg/injection, schedule: Q04DX002 (ip), vehicle: saline 100 % of control and 88 % of control

CCN(CC)CCOc1ccccc1Br
inactive: dose: 12.5 mg/kg/injection, schedule: Q04DX003 (ip), vehicle: saline 97 % of control | [6] 95 % of control | [1] 96 % of control | [7] 98 % of control | [2] 97 % of control | [3] 100 % of control

NNC(=O)C(=O)NN
inactive: dose: 100.0 mg/kg/injection, schedule: Q04DX002 (ip), vehicle: Klucel (hydroxypropylcellulose) (HPC) 102 % of control | [9] 98 % of control | dose: 400.0 mg/kg/injection, schedule: Q04DX002 (ip), vehicle: Klucel (hydroxypropylcellulose) (HPC) 93 % of control

CC(=O)CC(C)(C)S(=O)(=O)O
inactive: dose: 100.0 mg/kg/injection, schedule: Q01DX001 (ip), vehicle: saline 100 % of control | [10] 100 % of control | [11] 100 % of control

CC(C)CN=C(N)CSS(=O)(=O)O
inactive: [4] 102 % of control | [5] 105 % of control | dose: 50.0 mg/kg/injection, schedule: Q04DX002 (ip), vehicle: Klucel (hydroxypropylcellulose) (HPC) 94 % of control | [9] 94 % of control

CCOC(=O)CCOCOCCC(=O)OCC
inactive: [3] 106 % of control | [12] 110 % of control | [13] 95 % of control

O=c1[nH]cnc2nc(SCc3ccccc3NCBr)[nH]c12
inactive: dose: 31.3 mg/kg/injection, schedule: Q04DX002 (ip), vehicle: Klucel (hydroxypropylcellulose) (HPC) 91 % of control | dose: 62.5 mg/kg/injection, schedule: Q04DX002 (ip), vehicle: Klucel (hydroxypropylcellulose) (HPC) 91 % of control | dose: 125.0 mg/kg/injection, schedule: Q04DX002 (ip), vehicle: Klucel (hydroxypropylcellulose) (HPC) 88 % of control

O=CNc1ccc2c3c(cccc13)CC2
inactive: [14] 101 % of control | [15] 93 % of control | [16] 108 % of control

O=C(NC(CSC(c1ccccc1)c1ccccc1)C(=O)O)OCc1ccccc1 (centres undefined)
inactive: dose: 25.0 mg/kg/injection, schedule: Q01DX009 (ip), vehicle: Klucel (hydroxypropylcellulose) (HPC) 103 % of control | dose: 50.0 mg/kg/injection, schedule: Q01DX009 (ip), vehicle: Klucel (hydroxypropylcellulose) (HPC) 100 % of control | [17] 100 % of control and 88 % of control | [18] 93 % of control | dose: 200.0 mg/kg/injection, schedule: Q04DX003 (ip), vehicle: Klucel (hydroxypropylcellulose) (HPC) 95 % of control | dose: 400.0 mg/kg/injection, schedule: Q04DX003 (ip), vehicle: Klucel (hydroxypropylcellulose) (HPC) 89 % of control

CC12OC(=O)CC1CC(=O)O2 (centres undefined)
inactive: dose: 100.0 mg/kg/injection, schedule: Q01DX001 (ip), vehicle: saline sonified 101 % of control | dose: 100.0 mg/kg/injection, schedule: Q01DX009 (ip), vehicle: saline sonified 109 % of control | dose: 200.0 mg/kg/injection, schedule: Q01DX001 (ip), vehicle: saline sonified 95 % of control | dose: 200.0 mg/kg/injection, schedule: Q01DX009 (ip), vehicle: saline sonified 105 % of control | dose: 400.0 mg/kg/injection, schedule: Q01DX001 (ip), vehicle: saline sonified 92 % of control | dose: 400.0 mg/kg/injection, schedule: Q01DX009 (ip), vehicle: saline sonified 102 % of control

O=C1c2ccccc2C[CH]1[Hg][Cl] (centres undefined)
inactive: dose: 5.0 mg/kg/injection, schedule: Q01DX001 (ip), vehicle: saline 103 % of control | dose: 10.0 mg/kg/injection, schedule: Q01DX001 (ip), vehicle: saline 102 % of control

CSc1ccc(NC(=O)Nc2ccccc2C(N)=O)cc1
inactive: [8] 108 % of control | [3] 92 % of control | dose: 200.0 mg/kg/injection, schedule: Q01DX009 (ip), vehicle: saline 114 % of control | [12] 98 % of control | [13] 95 % of control

CC1(CCI)NC(=O)NC1=O (centres undefined)
inactive: [14] 98 % of control | [15] 104 % of control | [16] 111 % of control

S=C(NCCN1CCOCC1)Nc1ccccc1
inactive: dose: 50.0 mg/kg/injection, schedule: Q01DX001 (ip), vehicle: other 105 % of control | dose: 100.0 mg/kg/injection, schedule: Q01DX001 (ip), vehicle: other 94 % of control | dose: 200.0 mg/kg/injection, schedule: Q01DX001 (ip), vehicle: other 94 % of control | dose: 400.0 mg/kg/injection, schedule: Q01DX001 (ip), vehicle: other 92 % of control

Cc1ccc2c(c1)C(=O)CCC2
inactive: dose: 177.0 mg/kg/injection, schedule: Q01DX001 (ip), vehicle: saline 94 % of control | [10] 95 % of control | dose: 266.0 mg/kg/injection, schedule: Q01DX001 (ip), vehicle: saline 94 % of control | [11] 94 % of control and 95 % of control | dose: 600.0 mg/kg/injection, schedule: Q01DX001 (ip), vehicle: saline 96 % of control

CCOC(=O)Nc1cc(NCC(O)CN(C)C)c([N+](=O)[O-])c(N)n1 (centres undefined)
inactive: dose: 100.0 mg/kg/injection, schedule: Q01DX001 (ip), vehicle: saline with Tween-80 103 % of control | dose: 200.0 mg/kg/injection, schedule: Q01DX001 (ip), vehicle: saline with Tween-80 94 % of control | dose: 400.0 mg/kg/injection, schedule: Q01DX001 (ip), vehicle: saline with Tween-80 101 % of control

Nc1nccnc1Nc1ccccc1
inactive: dose: 75.0 mg/kg/injection, schedule: Q01DX001 (ip), vehicle: other 100 % of control | dose: 150.0 mg/kg/injection, schedule: Q01DX001 (ip), vehicle: other 100 % of control | dose: 300.0 mg/kg/injection, schedule: Q01DX001 (ip), vehicle: other 100 % of control

CC(=O)Nc1ccc2c(c1)Cc1cc(N=Cc3ccccn3)ccc1-2
inactive: dose: 50.0 mg/kg/injection, schedule: Q04DX003 (ip), vehicle: Klucel (hydroxypropylcellulose) (HPC) 87 % of control | [18] 90 % of control

Cc1ccc(C(=O)O)cc1S(=O)(=O)F
inactive: dose: 100.0 mg/kg/injection, schedule: Q01DX009 (ip), vehicle: saline with Tween-80 96 % of control | dose: 100.0 mg/kg/injection, schedule: Q04DX003 (ip), vehicle: saline with Tween-80 107 % of control | dose: 200.0 mg/kg/injection, schedule: Q01DX009 (ip), vehicle: saline with Tween-80 96 % of control | dose: 200.0 mg/kg/injection, schedule: Q04DX003 (ip), vehicle: saline with Tween-80 91 % of control | dose: 400.0 mg/kg/injection, schedule: Q01DX009 (ip), vehicle: saline with Tween-80 90 % of control | dose: 400.0 mg/kg/injection, schedule: Q04DX003 (ip), vehicle: saline with Tween-80 91 % of control

Cc1ccc(NC(=S)N2CCCC(C)C2)cc1C (centres undefined)
inactive: [17] 102 % of control | dose: 200.0 mg/kg/injection, schedule: Q01DX009 (ip), vehicle: Klucel (hydroxypropylcellulose) (HPC) 100 % of control | dose: 400.0 mg/kg/injection, schedule: Q01DX009 (ip), vehicle: Klucel (hydroxypropylcellulose) (HPC) 102 % of control
